Results as given in PubChem BioAssay AID2305 (GlaxoSmithKline (GSK), 2010).
Several values for one entry are separate records, joined by “and”; a condition that tells them apart may be missing. Equal entries are not always repeated.

Tested on: P. falciparum 3D7 growth, pLDH absorbance
Test: blood-stage malaria parasite growth potency – strain 3D7, dose response (AID 2305)

Structure (SMILES) | IC50
CCCCCCN1CCC(NCc2ccc(OCCN3CCCC3)cc2)CC1 | 720 nM
Cc1[nH]c(C)c(-c2ccc(C(=O)c3ccccc3)cc2)c(=O)c1Br | 780 nM
CC1CCN(C(=O)[C@H](Cc2c[nH]c3ccccc23)NS(=O)(=O)c2ccc(Cl)cc2)CC1 | 670 nM
CC(Cc1ccc(OCc2ccc(CCN(C)C)cc2)cc1)NCCc1cccc(Cl)c1 (stereo not drawn) | 770 nM
COc1ccc(NC(=O)[C@H](CC(C)C)Nc2cc(C)nc(NCCOc3ccccc3)n2)cc1 | 800 nM
O=C(/C=C/c1ccccc1O)N1CCC(CCN2CCC(c3c[nH]c4ccccc34)CC2)CC1 | 1340 nM
Cc1cccc2[nH]c(-c3cccc(-c4ccc(CN5CCC(C(N)=O)CC5)cc4)c3)nc12 | 850 nM
CCCCCCCOc1ccc(NC(=O)Nc2ccc(Cn3ncc(N4CCCNCC4)c(Cl)c3=O)cc2)cc1 | 920 nM
CCOc1ccc(-c2nonc2NC(=O)c2ccccc2Cl)cc1OCC | 740 nM
CCN(CC)CCN(Cc1ccc(-c2ccc(C(F)(F)F)cc2)cc1)C(=O)Cn1c(CCC2CCCCC2)nc(=O)c2ccccc21 | 1390 nM
COCCNCc1cccc(-c2ccc(CNC3CCN(Cc4ccccc4)CC3)cc2)c1 | 510 nM
Cc1cccc2[nH]c(-c3ccc(-c4cccc(CN5CCN(c6ccc(C#N)cn6)CC5)c4)s3)nc12 | 1420 nM
Nc1ccc2[nH]cc(C3CCN(CC4CCC(NC(=O)/C=C/c5ccccc5Cl)CC4)CC3)c2n1 (stereo not drawn) | 690 nM
CN1CCN(CC(=O)Nc2ccc(-c3cccc(-c4nc5ccc(C(F)(F)F)cc5[nH]4)c3)cc2)CC1 | 400 nM
Cc1cc(C2CCN(CCCCNC(=O)c3ccc(NC(=O)c4ccc(Cl)cc4)cc3)CC2)c(C)cc1OC(C)C | 740 nM
COc1ccc2nccc([C@@H](O)CN3CCC(NC(=O)C(=O)c4c[nH]c5c(C)cccc45)CC3)c2c1 | 310 nM
Cc1cccc2[nH]c(-c3ccc(-c4cccc(C(=O)N5CCCCC5C(C)O)c4)s3)nc12 (stereo not drawn) | 640 nM
OC1(c2ccccc2)CCN(Cc2cccc(-c3c[nH]c4nc(NC5CCCC5)ncc34)c2)C1 (stereo not drawn) | 910 nM
CC(Cc1ccc(Cl)cc1)Nc1nc(NC2CCCC2)nc(N2CCC(C#N)(c3ccccc3)CC2)n1 (stereo not drawn) | 710 nM
CCCCCCNc1c2ccccc2nc2ccccc12 | 950 nM
CN1CCC(C(=O)Nc2cccc(-c3ccc(-c4nc5ccc(C(F)(F)F)cc5[nH]4)cc3)c2)CC1 | 680 nM
Nc1cc(-c2ccc3ccccc3c2)nc2ccccc12 | 700 nM
CCCCCNc1nc2nc(N)nc(N)c2nc1-c1ccccc1 | 950 nM
O=C(NCc1cccc(C(F)(F)F)c1)[C@@H]1CCCN1C(=O)c1ccc(O)c(-c2ccc(Cl)c(Cl)c2)c1 | 790 nM
O=[N+]([O-])c1ccccc1C=NNc1ccnc2ccccc12 | 860 nM

Structure (SMILES) | IC50
COc1ccc2nccc([C@@H](O)CN3CCC(NCc4nc5c(OCc6ccccc6)cccc5[nH]4)CC3)c2c1 | 180 nM
CCOC(=O)c1ccc(N2CCCCC2)c(NC(=O)C(Cl)(Cl)Cl)c1 | 850 nM
c1ccc2cc3c(Nc4ccc(N5CCCCCC5)cc4)ccnc3cc2c1 | 940 nM
Cc1cc(-c2ccc(S(=O)(=O)Nc3cc4c(cc3OC(C)C)CCN(C)CC4)cc2)ccc1Cl | 900 nM
O=C1CCCN1CCCNCc1ccc(-c2cccc(-c3nc4ccc(C(F)(F)F)cc4[nH]3)c2)cc1 | 190 nM
COc1cc(Cc2cnc(N)nc2N)cc(OCCCOc2ccccc2)c1OC | 1080 nM
COc1ccc(CN2CCC(N3CC(c4ccccc4)(c4ccccc4)OCC3=O)C2)c(O)c1 (stereo not drawn) | 930 nM
CCNC[C@@H](O)[C@H](Cc1ccccc1)NC(=O)c1cc2c3c(c1)c(CC)cn3CCS(=O)(=O)N2C | 810 nM
CC[C@H](NC(=O)c1c(CN2CCC(N3CCCCC3)CC2)c(-c2ccccc2)nc2cc(O)ccc12)c1ccccc1 | 1370 nM
Cc1cc(C)cc(OCC(O)CN(Cc2cc(Cl)cc(Cl)c2)C(=O)Nc2ccccc2Cl)c1 (stereo not drawn) | 940 nM
CCN(c1ccc(O)c(CN2CCCCC2)c1)c1ccc([N+](=O)[O-])cn1 | 890 nM
O=C(NCCc1cccc(Cl)c1Cl)c1ccc(N2CCN(c3ccncc3)CC2)nc1 | 1060 nM
CC1CCCC(NCc2c(O)ccc3ccccc23)C1 (stereo not drawn) | 930 nM
O=C(NCCN1CCOCC1)c1csc(C2CCCN(C(=O)c3ccc(O)c(-c4cc(Cl)cc(Cl)c4)c3)C2)n1 (stereo not drawn) | 1030 nM
O=C(Nc1ccccc1Br)N[C@@H]1CCN(c2ccnc3ccccc23)C1 | 940 nM
COc1ccc(CNC2CCN(C)CC2)cc1-c1ccc(S(=O)(=O)NCCc2ccccn2)c(C)c1 | 1150 nM
CC1(C)C(=O)Nc2ccccc2N1C(=O)CN1CCN(c2ccccc2O)CC1 | 1070 nM
CSc1ccc(CN2CCC(NC(=O)c3ccc(-c4ccc(N(C)C)cc4)s3)CC2)cc1 | 1500 nM
Oc1cccc(Nc2ccnc3cc(-c4ccncc4)ccc23)c1 | 1050 nM
CCOC(=O)/C(=N\OC(C(=O)OC(C)(C)C)c1ccccc1)c1csc(NC(c2ccccc2)(c2ccccc2)c2ccccc2)n1 (stereo not drawn) | 1110 nM
Cc1cc(NC(=O)c2ccco2)ccc1OC1CCN(Cc2ccc(C#N)cc2)CC1 | 500 nM
COc1ccc(-c2cnc3ccc(N4CCCC4)nn23)cc1OC | 770 nM
CCc1ccc2nc(-c3ccc(F)cc3)nc(SCC(=O)Nc3sc(C)c(C)c3C#N)c2c1 | 640 nM
N#Cc1cccc(C(=O)N2CCOC(CCN3CCC(c4ccccc4)CC3)(c3ccc(Cl)c(Cl)c3)C2)c1 (stereo not drawn) | 1040 nM
CS(=O)(=O)Nc1cccc(-c2cnc3[nH]cc(-c4cc(N)cc(C(=O)O)c4)c3c2)c1 | 1080 nM

Structure (SMILES) | IC50
OC1CCCN(Cc2cccc(-c3ccc(-c4nc5ccc(F)cc5[nH]4)cc3)c2)C1 (stereo not drawn) | 780 nM
CCn1c(-c2nc(-c3ccnc(N4CCN(C)CC4)c3)cnc2N)nc2cc(S(C)(=O)=O)ccc21 | 810 nM
CNC(=O)c1cc(NCCCNCc2ccc(Cl)c(C(F)(F)F)c2)nc2ccccc12 | 930 nM
Cc1cc(-c2cnc(N)c(-c3ccc(N4CCN(C)CC4)nc3)c2)cc(C)c1O | 1400 nM
O=C(Nc1cccnc1)c1cn(-c2ccccc2)nc1-c1cccs1 | 870 nM
N=C(N)c1ccc(C(=O)Nc2cccc(C(=N)N)c2)cc1 | 1040 nM
O=C(Nc1ccc(-c2cccc(-c3nc4ccccc4[nH]3)c2)cc1)Nc1ccc(F)c(F)c1F | 180 nM
CCc1nc(N)nc(N)c1-c1ccc(Cl)cc1 | 60 nM and 30 nM
Oc1ccc(Nc2nc(NCc3ccco3)c3ccccc3n2)cc1 | 670 nM
Cc1cc(NC(=O)[C@H](CC2CCCCC2)Nc2ccc(C#N)c3ccccc23)ccc1F | 680 nM
Nc1nc(N)c2c(ccc3ccccc32)n1 | 750 nM
COc1ccc2nccc([C@@H](O)CN3CCC(NCc4cc5cc(C)ccc5s4)CC3)c2c1 | 640 nM
CC(C)(C)c1ccc(S(=O)(=O)Nc2cc(Cl)ccc2Cn2ccc(N3CCNCC3)nc2=O)cc1 | 830 nM
COc1ccc(Nc2ccnc3cc4ccccc4cc23)cc1 | 680 nM
COCCNCC(O)Cn1c2ccc(Cl)cc2c2cc(Cl)ccc21 (stereo not drawn) | 50 nM
COc1ccc2ncc(F)c(CCN3CCC(NCc4cc(C)c5c(c4)OCCO5)CC3)c2n1 | 490 nM
Cc1cc(N[C@@H](CC(C)C)C(=O)NCCc2ccccc2)nc(Nc2ccccc2)n1 | 820 nM
O=C(COc1ccc(F)cc1)NC1CCN(c2ccnc3cc(Cl)ccc23)C1 (stereo not drawn) | 270 nM
CN1CCN(c2ccc(-c3nc4c(C(N)=O)c(OCc5cc(Cl)cc(Cl)c5)ccc4[nH]3)cc2)CC1 | 660 nM
O=C(/C=C/c1ccc(Cl)c(Cl)c1)NCCCCN1CCC(c2c[nH]c3ccccc23)CC1 | 860 nM
CC(Cc1ccc(OCC(=O)NCC2CCN(CCc3cccc(Cl)c3)CC2)cc1)NCCc1cccc(Cl)c1 (stereo not drawn) | 660 nM
Nc1ccc(-c2nc3ccc(Cc4ccc5nc(-c6ccc(N)cc6)[nH]c5c4)cc3[nH]2)cc1 | 510 nM
NC(N)=NC(=O)Nc1cc(F)c(Cl)c(Cl)c1 | 500 nM
CC(=O)Nc1ccc(CN2CCC(NC(=O)c3ccc(-c4ccc(N(C)C)cc4)s3)CC2)cc1 | 870 nM
COc1ccc(C=NNc2ccnc3cc(F)c(C)cc23)c2ccccc12 | 770 nM

Structure (SMILES) | IC50
O=C(Nc1ccc(Cl)cc1)Nc1nc2ccc([N+](=O)[O-])cc2[nH]1 | 800 nM
N=C(N)CCN(Cc1ccc(Cl)cc1)c1ccc(Cl)cc1 | 1060 nM
Cc1nnc2c(N(C(=O)NCCc3ccccc3)C(=O)NCCc3ccccc3)cc3cc(Cl)ccc3n12 | 950 nM
Cc1ccccc1Nc1nc(NCCCO)c2ccccc2n1 | 410 nM
COc1cccc(C(=O)NCCc2cccc(Cl)c2)c1OCc1ccccc1 | 1260 nM
O=S(=O)(NCCN1CCCC1)c1ccc(-c2ccccc2CNC2Cc3ccccc3C2)cc1 | 850 nM
Cc1cccc2[nH]c(-c3ccc(-c4cccc(CNCc5ccc(S(C)(=O)=O)cc5)c4)s3)nc12 | 330 nM
Cc1cc(C)c2[nH]cc(C(=O)O)c(=O)c2c1 | 880 nM
CCOC(=O)c1ccc(NC(=O)Nc2cccc(-c3ccc(-c4nc5ccc(C(F)(F)F)cc5[nH]4)cc3)c2)cc1 | 210 nM
CC1CC(C)CN(CCCNc2ccc(C(=O)Nc3ccc(C(F)(F)F)cc3)cc2[N+](=O)[O-])C1 (stereo not drawn) | 200 nM
COc1ccc(CCN2CCC(NCc3cccc(N(C)C)c3)CC2)cc1 | 1320 nM
O=C(Nc1cccc(C(F)(F)F)c1)c1cccc(S(=O)(=O)NCC2CCCN(Cc3ccccc3)C2)c1 (stereo not drawn) | 1100 nM
COc1ccc(CNC2CCN(C)CC2)cc1-c1ccc(S(=O)(=O)NCc2ccccc2)cc1 | 600 nM
COc1cccc2c(NCCNc3ccnc4c(OC)cccc34)ccnc12 | 270 nM
COC(=O)C(C)(C)Cc1c(SC(C)(C)C)c2cc(C(C)C)ccc2n1Cc1ccc(Cl)cc1 | 850 nM
O=C(Nc1ccc(Cl)c(Cl)c1)Nc1ccc2nccc(N3CCN(Cc4ccccc4)CC3)c2c1 | 160 nM
CC(C)(C)OC(=O)NCc1ccc(Nc2nnc(-c3cccc(OCC(=O)NCc4cc(C(F)(F)F)cc(C(F)(F)F)c4)c3)o2)cc1 | 830 nM
COc1c(C2CCN(CCCCNC(=O)c3noc(-c4ccc(C#N)cc4)n3)CC2)ccc2c1CCCC2 | 780 nM
CN(C)CCNC(=O)c1cccc(-c2cnc3ccc(NCc4ccc(Cl)c(Cl)c4)nn23)c1 | 700 nM
CCN(CC)CCCN(Cc1ccc(-c2ccc(C(F)(F)F)cc2)cc1)C(=O)Cn1c(SCc2cccc(F)c2F)cc(=O)c2ccccc21 | 1320 nM
Cc1ccccc1C1CCN(C2CCC(NC(=O)/C=C/c3ccc(C(F)(F)F)cc3)CC2)CC1 (stereo not drawn) | 1040 nM
Cc1nnsc1C(=O)Nc1ccc(-c2cccc(-c3nc4c(C)cccc4[nH]3)c2)cc1 | 630 nM
O=C(NCCN1CCCC1)c1ccc(-c2cccc(-c3nc4ccc(F)cc4[nH]3)c2)cc1 | 770 nM
